Test results: patent US20070191291A1, “Compound antibacterial drugs comprising n-acetyl-d-glucosamine” (priority 2003, published 2007)

Test system: E. coli
Assay: Test Example 1: inducing E. coli CGC with N-acetyl-D-glucosamine and antibiotics in different ratios (K-B method, microscopy)
Type: cell-based

What does the source list for `CC(=O)N[C@@H]1[C@@H](O)[C@H](O)[C@@H](CO)O[C@H]1O` [Compound (I), N-acetyl-D-glucosamine]?
CGC formation (Compound (I) 150 mg, macrolide (spiramycin) 500 mg): − (if cell length was not greater than 50 μm and cell number was within the range from 0 to 4 in each visual field, it was deemed as CGC negative and was marked with “−”); CGC formation (Compound (I) 150 mg, macrolide (spiramycin) 700 mg): − (if cell length was not greater than 50 μm and cell number was within the range from 0 to 4 in each visual field, it was deemed as CGC negative and was marked with “−”); CGC formation (Compound (I) 150 mg, macrolide (spiramycin) 900 mg): − (if cell length was not greater than 50 μm and cell number was within the range from 0 to 4 in each visual field, it was deemed as CGC negative and was marked with “−”); CGC formation (Compound (I) 150 mg, macrolide (spiramycin) 1100 mg): + (If cell length was more than 50 μm and cell number was more than 5 in each visual field, it was deemed as CGC positive and was marked with “+”); CGC formation (Compound (I) 150 mg, macrolide (spiramycin) 1300 mg): + (If cell length was more than 50 μm and cell number was more than 5 in each visual field, it was deemed as CGC positive and was marked with “+”); CGC formation (Compound (I) 150 mg, macrolide (spiramycin) 1500 mg): + (If cell length was more than 50 μm and cell number was more than 5 in each visual field, it was deemed as CGC positive and was marked with “+”); CGC formation (Compound (I) 150 mg, quinoline (ciprofloxacin, norfloxacin) 150 mg): − (if cell length was not greater than 50 μm and cell number was within the range from 0 to 4 in each visual field, it was deemed as CGC negative and was marked with “−”); CGC formation (Compound (I) 150 mg, quinoline (ciprofloxacin, norfloxacin) 200 mg): − (if cell length was not greater than 50 μm and cell number was within the range from 0 to 4 in each visual field, it was deemed as CGC negative and was marked with “−”); CGC formation (Compound (I) 200 mg, aminoglycoside (kanamycin, gentamycin) 50 mg): − (if cell length was not greater than 50 μm and cell number was within the range from 0 to 4 in each visual field, it was deemed as CGC negative and was marked with “−”); CGC formation (Compound (I) 200 mg, aminoglycoside (kanamycin, gentamycin) 100 mg): − (if cell length was not greater than 50 μm and cell number was within the range from 0 to 4 in each visual field, it was deemed as CGC negative and was marked with “−”); CGC formation (Compound (I) 200 mg, aminoglycoside (kanamycin, gentamycin) 150 mg): − (if cell length was not greater than 50 μm and cell number was within the range from 0 to 4 in each visual field, it was deemed as CGC negative and was marked with “−”); CGC formation (Compound (I) 200 mg, aminoglycoside (kanamycin, gentamycin) 200 mg): − (if cell length was not greater than 50 μm and cell number was within the range from 0 to 4 in each visual field, it was deemed as CGC negative and was marked with “−”); CGC formation (Compound (I) 200 mg, aminoglycoside (kanamycin, gentamycin) 300 mg): − (if cell length was not greater than 50 μm and cell number was within the range from 0 to 4 in each visual field, it was deemed as CGC negative and was marked with “−”); CGC formation (Compound (I) 200 mg, aminoglycoside (kanamycin, gentamycin) 400 mg): + (If cell length was more than 50 μm and cell number was more than 5 in each visual field, it was deemed as CGC positive and was marked with “+”); CGC formation (Compound (I) 200 mg, aminoglycoside (kanamycin, gentamycin) 500 mg): + (If cell length was more than 50 μm and cell number was more than 5 in each visual field, it was deemed as CGC positive and was marked with “+”); CGC formation (Compound (I) 200 mg, macrolide (spiramycin) 300 mg): − (if cell length was not greater than 50 μm and cell number was within the range from 0 to 4 in each visual field, it was deemed as CGC negative and was marked with “−”); CGC formation (Compound (I) 200 mg, macrolide (spiramycin) 500 mg): − (if cell length was not greater than 50 μm and cell number was within the range from 0 to 4 in each visual field, it was deemed as CGC negative and was marked with “−”); CGC formation (Compound (I) 200 mg, macrolide (spiramycin) 700 mg): − (if cell length was not greater than 50 μm and cell number was within the range from 0 to 4 in each visual field, it was deemed as CGC negative and was marked with “−”); CGC formation (Compound (I) 200 mg, macrolide (spiramycin) 900 mg): − (if cell length was not greater than 50 μm and cell number was within the range from 0 to 4 in each visual field, it was deemed as CGC negative and was marked with “−”); CGC formation (Compound (I) 200 mg, macrolide (spiramycin) 1100 mg): − (if cell length was not greater than 50 μm and cell number was within the range from 0 to 4 in each visual field, it was deemed as CGC negative and was marked with “−”); CGC formation (Compound (I) 200 mg, macrolide (spiramycin) 1300 mg): + (If cell length was more than 50 μm and cell number was more than 5 in each visual field, it was deemed as CGC positive and was marked with “+”); CGC formation (Compound (I) 200 mg, macrolide (spiramycin) 1500 mg): + (If cell length was more than 50 μm and cell number was more than 5 in each visual field, it was deemed as CGC positive and was marked with “+”); CGC formation (Compound (I) 250 mg, aminoglycoside (kanamycin, gentamycin) 50 mg): − (if cell length was not greater than 50 μm and cell number was within the range from 0 to 4 in each visual field, it was deemed as CGC negative and was marked with “−”); CGC formation (Compound (I) 250 mg, aminoglycoside (kanamycin, gentamycin) 100 mg): − (if cell length was not greater than 50 μm and cell number was within the range from 0 to 4 in each visual field, it was deemed as CGC negative and was marked with “−”); CGC formation (Compound (I) 250 mg, aminoglycoside (kanamycin, gentamycin) 150 mg): − (if cell length was not greater than 50 μm and cell number was within the range from 0 to 4 in each visual field, it was deemed as CGC negative and was marked with “−”); CGC formation (Compound (I) 250 mg, aminoglycoside (kanamycin, gentamycin) 200 mg): − (if cell length was not greater than 50 μm and cell number was within the range from 0 to 4 in each visual field, it was deemed as CGC negative and was marked with “−”); CGC formation (Compound (I) 250 mg, aminoglycoside (kanamycin, gentamycin) 300 mg): − (if cell length was not greater than 50 μm and cell number was within the range from 0 to 4 in each visual field, it was deemed as CGC negative and was marked with “−”); CGC formation (Compound (I) 250 mg, aminoglycoside (kanamycin, gentamycin) 400 mg): − (if cell length was not greater than 50 μm and cell number was within the range from 0 to 4 in each visual field, it was deemed as CGC negative and was marked with “−”); CGC formation (Compound (I) 250 mg, aminoglycoside (kanamycin, gentamycin) 500 mg): + (If cell length was more than 50 μm and cell number was more than 5 in each visual field, it was deemed as CGC positive and was marked with “+”); CGC formation (Compound (I) 250 mg, macrolide (spiramycin) 300 mg): − (if cell length was not greater than 50 μm and cell number was within the range from 0 to 4 in each visual field, it was deemed as CGC negative and was marked with “−”); CGC formation (Compound (I) 250 mg, macrolide (spiramycin) 500 mg): − (if cell length was not greater than 50 μm and cell number was within the range from 0 to 4 in each visual field, it was deemed as CGC negative and was marked with “−”); CGC formation (Compound (I) 250 mg, macrolide (spiramycin) 700 mg): − (if cell length was not greater than 50 μm and cell number was within the range from 0 to 4 in each visual field, it was deemed as CGC negative and was marked with “−”); CGC formation (Compound (I) 250 mg, macrolide (spiramycin) 900 mg): − (if cell length was not greater than 50 μm and cell number was within the range from 0 to 4 in each visual field, it was deemed as CGC negative and was marked with “−”); CGC formation (Compound (I) 250 mg, macrolide (spiramycin) 1100 mg): − (if cell length was not greater than 50 μm and cell number was within the range from 0 to 4 in each visual field, it was deemed as CGC negative and was marked with “−”); CGC formation (Compound (I) 250 mg, macrolide (spiramycin) 1300 mg): − (if cell length was not greater than 50 μm and cell number was within the range from 0 to 4 in each visual field, it was deemed as CGC negative and was marked with “−”); CGC formation (Compound (I) 250 mg, macrolide (spiramycin) 1500 mg): + (If cell length was more than 50 μm and cell number was more than 5 in each visual field, it was deemed as CGC positive and was marked with “+”); CGC formation (Compound (I) 300 mg, aminoglycoside (kanamycin, gentamycin) 50 mg): − (if cell length was not greater than 50 μm and cell number was within the range from 0 to 4 in each visual field, it was deemed as CGC negative and was marked with “−”); CGC formation (Compound (I) 300 mg, aminoglycoside (kanamycin, gentamycin) 100 mg): − (if cell length was not greater than 50 μm and cell number was within the range from 0 to 4 in each visual field, it was deemed as CGC negative and was marked with “−”); CGC formation (Compound (I) 300 mg, aminoglycoside (kanamycin, gentamycin) 150 mg): − (if cell length was not greater than 50 μm and cell number was within the range from 0 to 4 in each visual field, it was deemed as CGC negative and was marked with “−”); CGC formation (Compound (I) 300 mg, aminoglycoside (kanamycin, gentamycin) 200 mg): − (if cell length was not greater than 50 μm and cell number was within the range from 0 to 4 in each visual field, it was deemed as CGC negative and was marked with “−”); CGC formation (Compound (I) 300 mg, aminoglycoside (kanamycin, gentamycin) 300 mg): − (if cell length was not greater than 50 μm and cell number was within the range from 0 to 4 in each visual field, it was deemed as CGC negative and was marked with “−”); CGC formation (Compound (I) 300 mg, aminoglycoside (kanamycin, gentamycin) 400 mg): − (if cell length was not greater than 50 μm and cell number was within the range from 0 to 4 in each visual field, it was deemed as CGC negative and was marked with “−”); CGC formation (Compound (I) 300 mg, aminoglycoside (kanamycin, gentamycin) 500 mg): − (if cell length was not greater than 50 μm and cell number was within the range from 0 to 4 in each visual field, it was deemed as CGC negative and was marked with “−”); CGC formation (Compound (I) 300 mg, macrolide (spiramycin) 300 mg): − (if cell length was not greater than 50 μm and cell number was within the range from 0 to 4 in each visual field, it was deemed as CGC negative and was marked with “−”); CGC formation (Compound (I) 300 mg, macrolide (spiramycin) 500 mg): − (if cell length was not greater than 50 μm and cell number was within the range from 0 to 4 in each visual field, it was deemed as CGC negative and was marked with “−”); CGC formation (Compound (I) 300 mg, macrolide (spiramycin) 700 mg): − (if cell length was not greater than 50 μm and cell number was within the range from 0 to 4 in each visual field, it was deemed as CGC negative and was marked with “−”); CGC formation (Compound (I) 300 mg, macrolide (spiramycin) 900 mg): − (if cell length was not greater than 50 μm and cell number was within the range from 0 to 4 in each visual field, it was deemed as CGC negative and was marked with “−”); CGC formation (Compound (I) 300 mg, macrolide (spiramycin) 1100 mg): − (if cell length was not greater than 50 μm and cell number was within the range from 0 to 4 in each visual field, it was deemed as CGC negative and was marked with “−”); CGC formation (Compound (I) 300 mg, macrolide (spiramycin) 1300 mg): − (if cell length was not greater than 50 μm and cell number was within the range from 0 to 4 in each visual field, it was deemed as CGC negative and was marked with “−”); CGC formation (Compound (I) 300 mg, macrolide (spiramycin) 1500 mg): − (if cell length was not greater than 50 μm and cell number was within the range from 0 to 4 in each visual field, it was deemed as CGC negative and was marked with “−”)
